Read-outs that look alike come from different tables or passages of the source.
Key:
human GPR43 = biological target: T1, human GPR43 (Homo sapiens, UniProt O15552); experiment: cAMP inhibition assay (HTRF), forskolin-induced cAMP in CHO cells stably expressing human GPR43; format: cell-based; details: inhibition of forskolin-induced cAMP production
T1 construct: expressed in transfected cells
T1 sequence (O15552 1-330): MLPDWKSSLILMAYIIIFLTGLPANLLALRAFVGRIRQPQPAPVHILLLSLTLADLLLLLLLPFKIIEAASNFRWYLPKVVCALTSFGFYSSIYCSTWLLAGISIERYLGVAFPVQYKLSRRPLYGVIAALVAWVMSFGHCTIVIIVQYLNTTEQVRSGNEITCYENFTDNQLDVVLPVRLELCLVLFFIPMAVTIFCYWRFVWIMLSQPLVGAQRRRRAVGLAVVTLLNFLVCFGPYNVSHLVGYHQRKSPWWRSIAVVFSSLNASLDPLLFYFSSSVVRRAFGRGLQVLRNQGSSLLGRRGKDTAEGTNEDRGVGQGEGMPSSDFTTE
Protocol: A competitive, HTRF® immunoassay (CisBio Dynamic 2 cAMP kit) was used to measure the inhibition of cAMP response in CHO cells stably expressing human GPR43. Assay-ready cells were thawed, resuspended in PBS and stimulated with forskolin (3μM final) for 45 minutes at room temperature in the presence of serially diluted natural ligands or test compounds in a 384 well plate (Greiner). Subsequently the cells were lysed by adding lysis buffer containing the cAMP-Tracer and Europium-labeled anti-cAMP antibody according to the manufacturer’s protocol. The signals were recorded using a Perkin Elmer Envision. The raw data was calculated as fluorescence ratio (665nm/620nm) and analyzed using GraphPad Prism Software.

human FFA2 receptor = biological target: T2, human FFA2 receptor (Homo sapiens, UniProt O15552); experiment: Aequorin assay, cytosolic calcium in CHO-K1 cells stably expressing aequorin and human FFA2 receptor; format: cell-based; details: CHO-K1 cells stably expressing human GPR43, read-out: Ca^2+ (Aequorin)
T2 construct: expressed in transfected cells
T2 sequence (O15552 1-330): T1 sequence (O15552 1-330)
Protocol: Agonist-induced receptor activation was determined by an increase in cytosolic calcium concentration in CHO-K1 cells stably expressing the mitochondrial targeted aequorin and human FFA2 receptor. The increased cytosolic calcium was monitored by luminescence emitted from aequorin as previously described

human T cells = experiment: One-way mixed lymphocyte reaction, T cell proliferation and cytokines; format: cell-based
Excerpt: Amgen Institutional Review Board approval and consent was obtained for collection and the studies involving human blood. PBMC were obtained from volunteers’ human blood using Ficoll. T cells were isolated using magnetic sorting with a pan T cell isolation kit (Miltenyi Biotec). Stimulator cells were isolated by negative magnetic sorting using anti-CD3 beads to deplete CD3+ cells. The stimulator cells were irradiated and mixed together with the purified T cells in the presence or absence of the SCFA or agonist. Supernatants were collected at day 3 for cytokine measurements using Meso Scale Discovery multiplex kits, and proliferation was measured at day 4 after an 18 hour pulse with 1μCi 3H-thymidine per well.

human PBMC = experiment: LPS stimulation of PBMC, cytokine production; format: cell-based; details: for effect on LPS-induced cytokine production: μM range; for effect on LPS-induced cytokine production / IC50: 1 μg/mL LPS, 18 hours; for IC50: Homo sapiens, PBMC, 45 minutes preincubation
Protocol: Amgen Institutional Review Board approval and consent was obtained for collection and the studies involving human blood. PBMC were isolated from heparinized blood using Ficoll and then plated onto 96-well plates. Butyrate or GPR43 agonists were incubated with the PBMC for 45 minutes prior to the addition of 1 μg/mL lipopolysaccharide (LPS). Cell culture supernatants were collected at 18 hours post-stimulation. TNFα, IL-1β and IL-6 production were measured using Meso Scale Discovery multiplex kits.

C2BBe1 cells [1] = experiment: Intestinal barrier function by ECIS in C2BBe1 cells; format: cell-based, human; details: 48 hours; for barrier resistance (ECIS), barrier formation: 75 Hz, #58 at 1 uM and 10 uM vs DMSO control
Protocol: Cells were cultured in DMEM containing 10% FBS, and the next day (day 1), the medium was replaced with that containing 0.5% serum. On day 2, media was changed and test agents were added in duplicate in media containing 0.5% serum. The experiment was concluded 48 hours later (day 4). Barrier resistance was measured on the ECIS instrument. The plots shown are at 75 Hz beginning at day 2 post-addition of the test agents with resistance values normalized to those observed just prior to the addition of test agents. For barrier disruption and reformation studies, cells were cultured in transwells in the ECIS array as described above in the presence of 10% serum for one day and 0.5% serum for another day. On day 2, the media was replaced with media containing 0.5% serum and 2.5 mM EGTA (in apical and basolateral chambers). The EGTA was washed off 5 hours later and replaced with media containing 0.5% serum and test agents. Cells were monitored over the next 48 hours for barrier reformation and the plots shown are at 75 Hz with resistance values normalized to those observed just prior to the addition of test agents.

C2BBe1 cells [2] = experiment: Intestinal barrier function by TEER and Lucifer Yellow in C2BBe1 monolayers
[3] = test system: intestinal epithelial cells; parameters: method as in PMID 9142899, PMID 17211138; details: published data ref [13], [15]; cited from earlier work
[4] = 72 h, supernatant day 3, read-out: IL-17A IC50

| Structure (SMILES) | EC50 (human GPR43) [µM] | EC50 (human FFA2 receptor; 10% FBS) [µM] | EC50 (human FFA2 receptor; No FBS) [µM] | IC50 (human T cells; [4]) [µM] | effect on LPS-induced cytokine production (human PBMC) | barrier resistance (ECIS), barrier formation (C2BBe1 cells [1]) | toxicity in TEER assays (C2BBe1 cells [2]; 5 mM) | effect on transepithelial electrical resistance (TEER) (C2BBe1 cells [2]; C2BBe1 monolayers, day 5) | concentrations toxic to intestinal epithelial cells [3] [µM] | barrier reformation after EGTA disruption (ECIS resistance) (C2BBe1 cells [1]; 2.5 mM EGTA 5 hours, then test agents) | IC50 (human T cells; 72 h, supernatant day 3, read-out: IFNγ IC50) [µM] | IC50 (human T cells; day 4, 3H-thymidine, read-out: Proliferation IC50) [µM] | IC50 (human PBMC; read-out: IL-1β IC50) [µM] | IC50 (human PBMC; read-out: IL-6 IC50) [µM] | IC50 (human PBMC; read-out: TNFα IC50) [µM] | cell viability (human PBMC; highest concentrations utilized in this assay) |
| --- | --- | --- | --- | --- | --- | --- | --- | --- | --- | --- | --- | --- | --- | --- | --- | --- |
| CC(C)[C@H](C(=O)Nc1ncc(F)s1)c1ccc(Cl)cc1 [#44] | 1.1 | 1 | 0.6 | 2.45 | only the highest concentration of the agonist #44 resulted in inhibition of cytokine production |  |  |  |  |  |  |  |  |  |  |  |
| CC(C)(C)[C@H](C(=O)Nc1ncc(-c2ccccc2)s1)c1ccc(Cl)cc1 [#58] | 1.8 | 0.6 | 0.3 | 8.88 | slight increase in some cytokines | did not result in increased resistance |  |  |  |  |  |  |  |  |  |  |
| CCCC(=O)O [Butyrate, butyrate] | 1060 |  |  | 60 |  | quicker increase, as well as higher measurements of resistance | appeared to be toxic | most potent of the three SCFA | > 5000 | earlier and higher levels of resistance | 50 | 170 | 440 | 2440 | 130 | not altered |
